Data set [1] concerns A549 cells. As to the kind of experiment: Intracellular ROS generation, CellROX Deep Red probe, FACS. The class given is cell-based, human. Conditions: for Normalized intracellular ROS generation, light: light 515 nm, 13.1 J cm^−2. The procedure: To determine the pathway by which the compounds cause cell death, a ROS generation assay was performed for Δ and Λ isomers of [1]Cl2–[3]Cl2 in A549 cells using the unspecific molecular probe CellROX Deep Red. This assay was used to quantify the formation of singlet oxygen, superoxide, and […], both in the dark or upon green light irradiation (515 nm, 13.1 J cm^−2). The cells treated with medium, Tert‐butyl hydroperoxide (tBHP), cisplatin, and Rose Bengal were used as vehicle control, positive control, negative control, and green light‐activated PDT type II control, respectively. These experiments were conducted in normoxic and hypoxic cells at the same time. The mean fluorescence intensity in each cell, which was quantified by FACS and normalized to that of controls, is a relative measure of intracellular ROS production (see Table 3; raw data in Figures S30 and S31, Supporting Information). At the end of the assay, the absolute ratio R, defined as the ratio of the ROS probe emission intensity in the light group, divided by that in the dark group, was used as quantification of light‐induced ROS production.
The generation of ROS (reactive oxygen species) in A549 cells was measured using the ROS deep red fluorescence indicator (Abcam, ab186029). A549 (1 × 10^5, 1 mL) were seeded into 12‐well plates (Sarstedt, 83.3921) and incubated for 24 h in the dark under normoxia. The cells were then treated with [1]Cl2 ‐[3]Cl2, cisplatin, Rose Bengal or [Ru(Ph2phen)2Cl2] (15 µM). There were two groups for each drug (dark and light). After 24 h of incubation under normoxia, the plate was washed with cold PBS once, and cells were trypsinized, harvested, and then resuspended in 150 µL PBS. The cell suspension from the centrifuge tubes was transferred to 96‐round bottom well plates (Thermo Scientific, 268200), and the plates were kept in the dark or irradiated with […] light (dose = 13.1 J cm^−2). After which, the Cellular ROS Deep Red dye was added with 1000× dilution, and the cells were further stained for 1 h. The levels of intracellular ROS were then determined using the CytoFLEX flow cytometer using the APC‐A (638 nm excitation, 660/10 nm emission) channel. All flow cytometry data were processed using FlowLogic 8.5 software.

Data set [2] concerns A549 cells. As to the kind of experiment: 2D cytotoxicity, sulforhodamine B (SRB) end point assay. The class given is cell-based, human. The settings on record: A549 2D normoxic cells, 72 h, without washing, no irradiation. The method, then: Considering the potential of the six diastereomers for PACT, and their better targeting of αvβ3 in hypoxic A549 cells, compared with PC‐3, their cytotoxicity was determined in 2D monolayers of normoxic and hypoxic A549 cells using a sulforhodamine B (SRB) cell quantification end point assay^[ [66] ^] in the dark (light dose 0 J cm^−2) or upon green light activation (light dose 13.1 J cm^−2). Half‐maximal effective concentrations (EC50 in µM) were measured as an evaluation of the toxicity of the compounds. The photoindex values (PI), defined as EC50,dark/ EC50,light, were calculated to quantify the extent of light activation in cancer cells. […]
A549 cells (5000) or PC‐3 cells (6000) were seeded in 96‐well plates (Sarstedt, 83.3924), each well contained 100 µL Opti‐MEM (Gibco complete medium 11058‐021, supplemented with 2.5% v/v fetal calf serum (FCS), 0.2% v/v penicillin/streptomycin (P/S), and 1% v/v glutamine) either in normoxic (21% O2) or hypoxic (1.0% O2) incubator. […] Finally, 100 µL of cold trichloroacetic acid (10% w/v) was added to each well to fix the cells, and all plates were then transferred to a 4 °C refrigerator for 48 h before performing an SRB cell quantification endpoint assay (see below).^[ [66] ^] […] Errors were calculated utilizing 95% confidence intervals (±CI in µM). […]

The conditions of data set [3]: mixture of the Δ‐ and Λ‐ isomers; cited from earlier work. The source says:
Table 1 Photochemical properties of isolated Δ and Λ diastereoisomers of [1]Cl2–[3]Cl2 including molar extinction coefficients (ε, in M ^−1 cm^−1) at absorption maximum wavelength (405 nm), photosubstitution quantum yields for step 1 (ΦPS1) and step 2 (ΦPS2) in H2O or 50% MeCN in H2O under green light irradiation, and singlet oxygen quantum yields of each complexes in CD3OD. | column: Complex || To evaluate the efficiency of these ruthenium‐peptide conjugates [1]Cl2–[3]Cl2 as potential PDT type II agents, the quantum yields (ΦΔ) of singlet oxygen generation were further measured by direct spectroscopic detection of ^1O2 emission at 1275 nm in air‐saturated CD3OD (Table 1; Figure S21, Supporting Information). The ΦΔ value for a mixture of the Δ‐ and Λ‐ isomers of [1]Cl2 was already reported in our previous work (0.013 ± 0.005)^[ [51] ^]; within experimental errors, the values found for the isolated isomers were identical (0.008 ± 0.005 and 0.009 ± 0.005), and, like for the isomers of [ ...

[4] abbreviates: A549, hypoxia (1%), 15 µM, 24 h.
Setting [5] is: A549, hypoxia (1%), 15 µM, 24 h, dark, normalized to dark control.
Where [6] appears, read: A549, hypoxia (1%), 15 µM, 24 h, normalized to dark control.
Setting [7] is: A549, normoxia (21%), 15 µM, 24 h.
Where [8] appears, read: A549, normoxia (21%), 15 µM, 24 h, dark, mean fluorescence normalized to dark control.
Where [9] appears, read: A549, normoxia (21%), 15 µM, 24 h, normalized to dark control.

This is an account of results in publication PMC12864594, “Photoactivated Proximity Protein Labeling Reveals Enhanced Tumor Retention of a D‐Peptide‐Ruthenium Prodrug Conjugate” (Advanced Healthcare Materials, 2025).

pEC50: −log10 of the molar value. Values joined by “and” are separate entries in the source; they are usually repeats but may differ in a detail not shown here. Identical values can stand only once. Peptide text beside a SMILES is read from it.

With `CSCC[C@@H](NC(=O)[C@@H](CC(=O)O)NC(=O)CNC(=O)[C@@H](CCCNC(=N)N)NC(=O)[C@@H](CCSC)NC(C)=O)C(N)=O`, the molar extinction coefficient ε × 10^4 at 405 nm (× 10^4 M^−1 cm^−1) was 1.16 and 1.27.

As to `CSCC[C@H](NC(=O)[C@@H](CC(=O)O)NC(=O)CNC(=O)[C@@H](CCCNC(=N)N)NC(=O)[C@H](CCSC)NC(C)=O)C(N)=O` (HELM PEPTIDE1{[ac].M.[dR].G.[dD].M.[am]}$$$$V2.0), the molar extinction coefficient ε × 10^4 at 405 nm (× 10^4 M^−1 cm^−1) was 1.12 and 1.05.

For `N.N.[Cl][Pt][Cl]` [Cisplatin, cisplatin], the “R (ROS probe emission light group / dark group)” value in the data set on A549 cells [1] (setting [4]) is 2.00; in the data set with A549 cells [1] (setting [7]), 1.74. The “Normalized intracellular ROS generation, dark” value with A549 cells [1] (setting [5]) was found to be 1.00; in the data set with A549 cells [1] (setting [8]), 1.28. In addition, the “Normalized intracellular ROS generation, light” value in the data set on A549 cells [1] (setting [6]) is listed as 1.99; in the data set on A549 cells [1] (setting [9]) it was 2.23.

Turning to `O=C([O-])c1c(Cl)c(Cl)c(Cl)c(Cl)c1-c1c2cc(I)c(=O)c(I)c-2oc2c(I)c([O-])c(I)cc12.[Na+].[Na+]` [Rose Bengal], the “R (ROS probe emission light group / dark group)” value was 3.05 in the data set on A549 cells [1] (setting [4]); 5.2 and 5.21 in the data set with A549 cells [1] (setting [7]). Moreover, the results for the “Normalized intracellular ROS generation, dark” value with A549 cells [1] (setting [5]) and in the data set on A549 cells [1] (setting [8]) were 0.84 and 0.90, respectively. In addition, the entries for the “Normalized intracellular ROS generation, light” value with A549 cells [1] (setting [6]) and in the data set with A549 cells [1] (setting [9]) were 2.56 and 4.71, respectively.

In general, pEC50 refers to the EC50 on a negative log10 scale, so that one unit is a factor of ten. Low values mean a high EC50, high ones a low EC50. The compound `F[P-](F)(F)(F)(F)F.F[P-](F)(F)(F)(F)F.[Ru+2].c1ccc(-c2ccnc3c2ccc2c(-c4ccccc4)ccnc23)cc1.c1ccc(-c2ccnc3c2ccc2c(-c4ccccc4)ccnc23)cc1` [[Ru(Ph2phen)2(H2O)2](PF6)2] showed a pEC50 in the data set on A549 cells [2] of less than 4.00.

For `CC(C)(C)OO` [tBHP, Tert‐butyl hydroperoxide], the “Normalized intracellular ROS generation, dark” value stood at 4.36 in the data set on A549 cells [1] (A549, hypoxia (1%), positive control 250 µM, 1 h) and 14.00 with A549 cells [1] (A549, normoxia (21%), positive control 250 µM, 1 h).

As for Ac-MRGDM-NH2, the molar extinction coefficient ε × 10^4 at 405 nm (× 10^4 M^−1 cm^−1) is 1.18 and 1.21.

Turning to “[Ru(Ph2phen)2(Ac‐MRGDM‐NH2)]Cl2 (sidechain bridge or staple) [[1]Cl2]”, the “ΦΔ (1O2) singlet oxygen quantum yield” value in data set [3] is recorded as 0.013 ± 0.005.
